Measurements taken from PubChem BioAssay AID1259332 (Broad Institute, 2017).
Calls of active or inactive are those of the source. The rule behind the calls is not given here.

Assay: CD40 pathway inhibition in B cells – B cell lineage, dose response (AID 1259332);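 note: cells stimulated with CD40 ligand tCD40L; 0% = neutral control wells and -100% = positive control wells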
Conditions: B cell line, CD40 signaling inhibition reporter

CC(=O)c1cc(-c2ccccc2)n(CC(=O)NCc2cccs2)c1C
activity change, negative = inhibition (at 10 µM (top of the series)): -1.07% (inactive)

CC(C)(C)[S@](=O)N1Cc2cc(C(=O)NCC(F)(F)F)nc(-c3cccc(-c4cccc(F)c4)c3)c2[C@@H]1CCO
activity change, negative = inhibition (at 1.1 µM (top of the series)): 9.18% (inactive)

N=C(N)c1ccc(OCCCCCOc2ccc(C(=N)N)cc2)cc1
activity change, negative = inhibition (at 10 µM (top of the series)): -0.281% (inactive)

COc1ccc(C(=O)/C=C/C(=O)N(CC(=O)NC2CCCCC2)Cc2ccc(F)cc2)c(O)c1
activity change, negative = inhibition (at 10 µM (top of the series)): -5.51% (inactive)

Cc1ccc2c(c1)C(O)(CC(=O)/C=C/C=C/c1ccccc1)C(=O)N2 (centres undefined)
activity change, negative = inhibition (at 10 µM (top of the series)): -5.49% (inactive)

O=C1C(=Cc2ccccc2[N+](=O)[O-])Cc2ccccc21
activity change, negative = inhibition (at 0.38 µM (top of the series)): 19.6% (inactive)

OC(CCN1CCCCC1)c1ccc(-c2ccccc2)cc1 (centres undefined)
activity change, negative = inhibition (at 10 µM (top of the series)): 40.4% (inactive)

N#C[C@H]1[C@@H](c2ccc(C#CC3CCCCC3)cc2)[C@@H](CO)N1C(=O)Nc1ccc(F)cc1
activity change, negative = inhibition (at 3.5 µM (top of the series)): 2.75% (inactive)

c1ccc(CCSc2nccn2-c2ccccc2)cc1
activity change, negative = inhibition (at 0.38 µM (top of the series)): 36.4% (inactive)

COC(=O)c1ccc2c(=O)[nH]c(COC(=O)c3c(-c4ccccc4)noc3C)nc2c1
activity change, negative = inhibition (at 10 µM (top of the series)): 7.81% (inactive)

C[C@@H]1CN([C@H](C)CO)C(=O)c2c(c3ccccc3n2C)-c2ccccc2CO[C@H]1CN(C)C(=O)Nc1ccccc1C(F)(F)F
activity change, negative = inhibition (at 10 µM (top of the series)): -0.491% (inactive)

O=C(c1ccc(-c2ccc([N+](=O)[O-])cc2)o1)N1CCCC(C(F)(F)F)C1 (centres undefined)
activity change, negative = inhibition (at 10 µM (top of the series)): 7.32% (inactive)

C[C@@H]1CCCCO[C@@H](CN(C)S(=O)(=O)c2ccc(Cl)cc2)[C@H](C)CN([C@H](C)CO)C(=O)c2cc(NC(=O)Nc3ccc(C(F)(F)F)cc3)ccc2O1
activity change, negative = inhibition (at 1.1 µM (top of the series)): 1.11% (inactive)

C[C@@H]1CN([C@@H](C)CO)C(=O)Cc2cc(NS(=O)(=O)c3ccccc3)ccc2O[C@H]1CN(C)Cc1ccc(Cl)c(Cl)c1
activity change, negative = inhibition (at 3.5 µM (top of the series)): 0.835% (inactive)

C[C@@H]1CN([C@@H](C)CO)C(=O)c2c(c3ccccc3n2C)-c2ccccc2CO[C@@H]1CN(C)Cc1ccccc1C(F)(F)F
activity change, negative = inhibition (at 10 µM (top of the series)): 4.94% (inactive)

CC12CC[C@H]3[C@@H](CCC4(O)C[C@H](O)CCC34/C=N/NC(=O)Cc3ccccc3)C1(O)CCC2C1=CC(=O)OC1 (some centres undefined)
activity change, negative = inhibition (at 10 µM (top of the series)): 5.75% (inactive)

Cc1noc(C)c1S(=O)(=O)Nc1ccc2c(c1)C(=O)N([C@H](C)CO)C[C@H](C)[C@@H](CN(C)C(=O)Nc1cccc3ccccc13)OCCCC[C@H](C)O2
activity change, negative = inhibition (at 3.5 µM (top of the series)): -1% (inactive)

COc1ccc(NC(=O)O/N=C/c2c(C)nn(C(C)(C)C)c2C)cc1
activity change, negative = inhibition (at 10 µM (top of the series)): 13.9% (inactive)

CC(C)OC(=O)CC1C(=O)NCCN1C(=S)NC(=O)c1cccs1 (centres undefined)
activity change, negative = inhibition (at 10 µM (top of the series)): 15.3% (inactive)

Cc1noc(C)c1S(=O)(=O)Nc1ccc2c(c1)C(=O)N([C@@H](C)CO)C[C@H](C)[C@@H](CN(C)C(=O)Nc1cccc3ccccc13)OCCCC[C@H](C)O2
activity change, negative = inhibition (at 10 µM (top of the series)): -10.1% (inactive)

COc1ccc2c3c(n(C)c2c1)[C@H](CO)N(C(=O)Nc1ccc(F)cc1)CC31CCN(C(=O)c2ccc3c(c2)OCO3)CC1
activity change, negative = inhibition (at 10 µM (top of the series)): 7.94% (inactive)

O=C1C=CC(=O)C2=C1C1c3ccccc3C2c2ccccc21
activity change, negative = inhibition (at 3.5 µM (top of the series)): -3.76% (inactive)

CCCC(C)Sc1nc2c([nH]1)c(=S)n(C)c(=O)n2C (centres undefined)
activity change, negative = inhibition (at 10 µM (top of the series)): -8.82% (inactive)

CCCNC(=O)N1[C@H](CO)[C@H](c2ccc(/C=C/c3ccccc3)cc2)[C@@H]1C#N
activity change, negative = inhibition (at 3.5 µM (top of the series)): 5% (inactive)

N#C[C@@H]1[C@@H](c2ccccc2-c2ccccc2)[C@@H](CO)N1C(=O)NC1CCCC1
activity change, negative = inhibition (at 3.5 µM (top of the series)): 5.58% (inactive)

O=C(Nc1ccccc1F)N1CCCCN2[C@H](CO)[C@H](c3ccc(/C=C/c4ccccc4)cc3)[C@H]2C1
activity change, negative = inhibition (at 10 µM (top of the series)): -13.9% (inactive)

CCc1cc2c(COC(=O)c3cc(S(=O)(=O)N4CCOCC4)ccc3F)cc(=O)oc2cc1O
activity change, negative = inhibition (at 10 µM (top of the series)): 11.4% (inactive)

Cc1ccccc1-c1ccc(C2[C@@H]3CN(C(=O)Nc4cccc(F)c4)C[C@H]2N3)cc1 (some centres undefined)
activity change, negative = inhibition (at 3.5 µM (top of the series)): 7.95% (inactive)

Fc1ccccc1/C=C1\CCCC2=C1Nc1nnnn1C2c1ccccc1F (centres undefined)
activity change, negative = inhibition (at 10 µM (top of the series)): -1.53% (inactive)

O=C(NCCC(c1ccccc1)c1ccco1)c1cccs1 (centres undefined)
activity change, negative = inhibition (at 3.5 µM (top of the series)): 25.6% (inactive)

CO[C@@H](CN(C)S(=O)(=O)c1ccc(Cl)cc1)[C@H](C)CN(Cc1ccccc1Cl)[C@@H](C)CO
activity change, negative = inhibition (at 1.1 µM (top of the series)): 0.243% (inactive)

Cc1cc(C)c2c(c1)SC1=NC(c3ccccc3)(C(F)(F)F)NC(=O)N12 (centres undefined)
activity change, negative = inhibition (at 10 µM (top of the series)): 8.7% (inactive)

N#C[C@@H]1[C@@H](c2ccccc2)[C@H](CO)N1C(=O)CN1CCOCC1
activity change, negative = inhibition (at 3.5 µM (top of the series)): -5.63% (inactive)

NS(=O)(=O)c1nn2cc(-c3ccccc3)nc2s1
activity change, negative = inhibition (at 10 µM (top of the series)): -27.6% (inactive)

O=C1C(Br)=C(c2ccccc2)C(c2ccccc2)=C1c1ccccc1
activity change, negative = inhibition (at 10 µM (top of the series)): -7.86% (inactive)

COc1ccc(CN2CC3(CN(S(=O)(=O)c4ccc(C)cc4)C3)c3c([nH]c4cc(OC)ccc34)[C@H]2CO)cc1
activity change, negative = inhibition (at 10 µM (top of the series)): -1.27% (inactive)

CC(=O)Nc1nc2nc(-c3ccccc3)cc(-c3ccccc3)n2n1
activity change, negative = inhibition (at 10 µM (top of the series)): 6.86% (inactive)

O=C(Nc1nc2ccccc2s1)c1ccc(OCC2CCCO2)cc1 (centres undefined)
activity change, negative = inhibition (at 1.1 µM (top of the series)): 111% (inactive)

CC(=O)Nc1ccc(S(=O)(=O)c2ccc(N)cc2)cc1
activity change, negative = inhibition (at 10 µM (top of the series)): 0.776% (inactive)

C[C@H]1CN([C@@H](C)CO)C(=O)c2ccccc2-c2ccccc2CO[C@H]1CN(C)Cc1ccc(Oc2ccccc2)cc1
activity change, negative = inhibition (at 0.38 µM (top of the series)): 6.67% (inactive)

C[C@@H]1CN([C@@H](C)CO)C(=O)c2ccccc2-c2ccccc2CO[C@@H]1CN(C)C(=O)c1cc(Cl)cc(Cl)c1
activity change, negative = inhibition (at 10 µM (top of the series)): -6.79% (inactive)

C(=Cc1c[nH]c2ccccc12)c1nccc2ccccc12
activity change, negative = inhibition (at 10 µM (top of the series)): 74.5% (inactive)

COc1ccc(S(=O)(=O)Nc2ccc3c(c2)C(=O)N([C@@H](C)CO)C[C@@H](C)[C@H](CN(C)Cc2ccc(C(F)(F)F)cc2)OCCCC[C@@H](C)O3)cc1
activity change, negative = inhibition (at 10 µM (top of the series)): -0.502% (inactive)

CC12CN3CC(C)(CN(C1)C3c1ccc3c(c1)OCO3)C2=O (centres undefined)
activity change, negative = inhibition (at 10 µM (top of the series)): 6.2% (inactive)
